# From paper PMC11050952 (Marine Drugs, 2024)
# Where “and” joins values, the source holds several entries; their conditions need not be identical. Equal values may be shown once. Entries after “also recorded” stand apart in the source; their conditions may differ. Read-outs that look alike come from different tables or passages of the source.
# Tests used:
# [1] = tested on: Nav currents in Neuro-2a cells (voltage-gated sodium channels, VGSCs); type: cell-based, murine
# Neuro-2a cells = settings: cited from earlier work
# [2] = read-out: IC50 (inhibition of Nav currents)
smiles,measurement,setting,value
CCCCNc1ccc(C(=O)OCCN(C)C)cc1 [tetracaine],IC50,[1]; [2],22500 nM
"NC1=N[C@H](O)[C@H]2[C@H]3O[C@]4(O)O[C@@H]([C@@H](O)[C@@]2(N1)[C@@H]4O)[C@]3(O)CO [TTX, Tetrodotoxin]",Hill Slope,[1],0.997 ± 0.068 and 0.910 ± 0.120 and 1.167 ± 0.204 and 0.801 ± 0.149 and 1.089 ± 0.097
same,Reversibility of Nav current blockage,[1],could be reversed
same,TTX concentration giving 20% blockade (minimum detectable blockade),[1],0.5 ng/mL
same,Inhibition of Nav currents,[1]; 0.1 µM,completely inhibited; also recorded: complete inhibitions
same,IC50,[1]; read-out: IC50 (blockade of Nav currents),6.4 nM
same,IC50,[1]; read-out: IC50 Value,4.93 nM and 5.02 nM and 5.12 nM and 4.26 nM and 6.38 nM
"C[C@@H]1C[C@@H]2[C@@H](O)N=C(N)N[C@]23[C@H](O)C(=O)O[C@H]1[C@H]3O [5,6,11-trideoxyTTX]",Toxicity equivalency factor (TEF),Neuro-2a cells,0.011
"CCN(CC)CC(=O)Nc1c(C)cccc1C [Lidocaine, lidocaine]",IC50,[1]; [2],717000 nM
